# Experimental data from US8420630B2 (Boehringer Ingelheim Pharma GmbH & Co. KG, priority 2001, dated 2013).
# Biological target: T1, CDK1/cyclinB1 (Homo sapiens, UniProt P06493)
# T1 construct: made in house; host or cells: High Five insect cells (Trichoplusia ni), baculovirus coinfection
# Assay: Cyclin B1-CDK1 kinase inhibition test
# Assay type: biochemical
# Conditions: CDK1 tests (Example 13); recombinant cyclin B1/CDK1, substrate histone H1; read-out: CDK1/cyclinB1 IC50 value
# Method: CDK4) were cloned by standard methods using RT-PCR, and cloned into a transfer vector (cyclin in pAcG2T made by Pharmingen, CDKs in p2Bac made by Invitrogen) for the baculovirus system. […] After thawing the cells were resuspended in lysing buffer (50 mM HEPES pH 7.5, 10 mM MgCl2, 1 mM DTT, 5 μg/ml leupeptin, 5 μg/ml aprotinin, 100 μM NaF, 100 μM PMSF, 10 mM β-glycerolphosphate, 100 μM Na3VO4, 30 mM nitrophenylphosphate, 17.5 ml of lysing buffer per 10^8 cells) and incubated on ice for 30 min. […] Cyclin D1-CDK4 was purified by means of a GST-tag on cyclin D1 and then using glutathione beads (total protein about 0.2 mg/ml). All the kinase tests were carried out in 96-well microtitre plates (Greiner PS) in a final volume of 60 μl. […] As a negative control the kinase reaction was carried out in the absence of the substrate histone H1. As a positive control the kinase reaction was carried out in the absence of a test substance. As an internal control 30 μM and 300 μM (final concentration) of the kinase inhibitor olomoucin (Alexis) were used. […] The kinase reaction is started by the addition of 10 μl of ATP mix (0.045 mM ATP, 0.5 μCi ^33P-ATP in kinase buffer) and incubated for 30 min at 30° C. and 600 rpm in a shaking incubator. After incubation the plates were placed on ice and the proteins were precipitated by the addition of 125 μl of ice-cold 5% trichloroacetic acid. After 15 min on ice the precipitates were transferred onto Packard Unifilter 96 GF/B plates with the Packard Harvester System, and collected by vacuum filtration. The precipitates were washed 4 times with dist. H2O at ambient temperature. The filter plates were then dried at 60° C. and 50 μl of scintillation liquid were added to each well (Ultima Gold, Packard). The plate was sealed up with Sealing Tape and after 1 h measured in a scintillation measuring apparatus (Micro Beta made by Wallac).
# T1 sequence (P06493 whole entry): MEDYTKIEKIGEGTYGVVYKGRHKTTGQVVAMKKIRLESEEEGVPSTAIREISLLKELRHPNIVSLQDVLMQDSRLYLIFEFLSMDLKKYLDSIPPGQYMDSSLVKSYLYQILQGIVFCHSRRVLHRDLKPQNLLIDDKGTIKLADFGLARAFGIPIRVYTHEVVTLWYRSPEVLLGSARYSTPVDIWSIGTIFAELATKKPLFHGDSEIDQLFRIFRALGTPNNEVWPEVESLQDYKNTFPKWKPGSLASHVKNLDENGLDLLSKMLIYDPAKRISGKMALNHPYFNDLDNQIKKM
# T1 sequence (P14635 whole entry partner): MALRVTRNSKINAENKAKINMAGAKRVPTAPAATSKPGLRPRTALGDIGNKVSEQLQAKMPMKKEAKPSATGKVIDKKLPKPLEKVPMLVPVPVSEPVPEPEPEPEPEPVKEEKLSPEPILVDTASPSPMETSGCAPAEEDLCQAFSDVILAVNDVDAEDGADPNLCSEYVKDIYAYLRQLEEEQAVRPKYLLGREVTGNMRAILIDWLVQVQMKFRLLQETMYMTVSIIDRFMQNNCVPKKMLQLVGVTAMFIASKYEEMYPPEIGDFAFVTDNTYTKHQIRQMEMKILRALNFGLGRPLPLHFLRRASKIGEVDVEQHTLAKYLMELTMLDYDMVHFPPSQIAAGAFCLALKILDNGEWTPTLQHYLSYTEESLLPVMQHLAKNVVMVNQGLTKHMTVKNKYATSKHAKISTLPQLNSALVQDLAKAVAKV
row,IC50,Structure (SMILES)
1,< 100 nM,"NCCCCCNc1nc(Nc2cccc(Cl)c2)ncc1C(F)(F)F [Example 1(077), 2-(3-chloro-phenylamino)-4-(5-amino-1-pentylamino)-5-trifluoromethyl-pyrimidine]"
2,< 100 nM,"O=C(O)CCc1ccc(Nc2ncc(C(F)(F)F)c(NCCc3cccc(O)c3)n2)cc1 [Example 1(046), 2-(4-(2-carboxy-1-ethyl)-phenylamino)-4-(2-(3-hydroxyphenyl)-1-ethyl-amino)-5-trifluoromethyl-pyrimidine]"
3,< 100 nM,"CC(C)CC(=O)NCCCNc1nc(Nc2ccc3cnn(C)c3c2)ncc1C(F)(F)F [Example 7(015), 3-methyl-N-{3-[2-(1-methyl-1H-indazol-6-ylamino)-5-trifluoromethyl-pyrimidin-4-ylamino]-propyl}-butyramide]"
4,< 100 nM,"CC(=O)NCCNc1nc(Nc2ccc3[nH]ncc3c2)ncc1C(F)(F)F [Example 2(045), N-{2-[2-(1H-Indazol-5-ylamino)-5-trifluoromethyl-pyrimidin-4-ylamino]-ethyl}-acetamide]"
5,< 100 nM,"CCC(=O)NCCCNc1nc(Nc2ccc3cnn(C)c3c2)ncc1C(F)(F)F [Example 7(006), N-{3-[2-(1-methyl-1H-indazol-6-ylamino)-5-trifluoromethyl-pyrimidin-4-ylamino]-propyl}-propionamide]"
6,< 100 nM,"NC(=O)c1cccc(Nc2ncc([N+](=O)[O-])c(N3CCc4[nH]cnc4C3)n2)c1 [Example 1(022), 2-(3-aminocarbonyl-phenylamino)-4-(1,4,6,7-tetrahydro-imidazo[4,5-c]pyridin-5-yl)-5-nitro-pyrimidine]"
7,< 100 nM,"Clc1cnc(Nc2ccc3cn[nH]c3c2)nc1N1CCc2[nH]cnc2C1 [Example 2(134), [5-Chloro-4-(1,4,6,7-tetrahydro-imidazo[4,5-c]pyridin-5-yl)-pyrimidin-2-yl]-(1H-indazol-6-yl)-amine]"
8,< 100 nM,"CC(=O)NCCNc1nc(Nc2ccc(N(C)S(C)(=O)=O)cc2)ncc1C(F)(F)F [Example 2(011), 2-(4-(N-Methyl-N-methylsulphonyl)amino-phenylamino)-4-(2-acetylamino-ethylamino)-5-trifluoromethyl-pyrimidine]"
9,< 100 nM,"FC(F)(F)c1cnc(Nc2cccc(Cl)c2)nc1N1CCc2[nH]cnc2C1 [Example 1(005), 2-(3-chlorophenylamino)-4-(1,4,6,7-tetrahydro-imidazo[4,5-c]pyridin-5-yl)-5-trifluoromethyl-pyrimidine]"
10,< 100 nM,"CC(=O)NCCNc1nc(Nc2ccc(Cl)c(C(F)(F)F)c2)ncc1C(F)(F)F [Example 2(013), 2-(4-chloro-3-trifluoromethyl-phenylamino)-4-(2-acetylamino-ethylamino)-5-trifluoromethyl-pyrimidine]"
11,< 100 nM,"CC(=O)NCCNc1nc(Nc2ccc(Br)cc2)ncc1C(F)(F)F [Example 2(007), 2-(4-bromophenylamino)-4-(2-acetylamino-ethylamino)-5-trifluoromethyl-pyrimidine]"
12,< 100 nM,"O=C(O)c1ccc(Nc2ncc([N+](=O)[O-])c(N3CCc4[nH]cnc4C3)n2)cc1 [Example 1(029), 2-(4-carboxy-phenylamino)-4-(1,4,6,7-tetrahydro-imidazo[4,5-c]pyridin-5-yl)-5-nitro-pyrimidine]"
13,< 100 nM,"CN(C)S(=O)(=O)c1ccc(Nc2ncc(Cl)c(NCCCN3CCCC3=O)n2)cc1 [Example 2(109), 4-{5-Chloro-4-[3-(2-oxo-pyrrolidin-1-yl)-propylamino]-pyrimidin-2-ylamino}-N,N-dimethyl-phenylsulphonamide]"
14,< 100 nM,"O=C1CCCN1CCCNc1nc(Nc2ccc3cn[nH]c3c2)ncc1C(F)(F)F [Example 2(038), 1-{3-[2-(1H-Indazol-6-ylamino)-5-trifluoromethyl-pyrimidin-4-ylamino]-propyl}-pyrrolidin-2-one]"
15,< 100 nM,"O=C1CCCN1CCCNc1nc(Nc2ccc(-c3nn[nH]n3)cc2)ncc1C(F)(F)F [Example 2(076), 1-(3-{2-[4-(2H-tetrazol-5-yl)-phenylamino]-5-trifluoromethyl-pyrimidin-4-ylamino}-propyl)-pyrrolidin-2-one]"
16,< 100 nM,"O=[N+]([O-])c1ccccc1CNc1nc(Nc2ccc(Cl)c(Cl)c2)ncc1C(F)(F)F [Example 1(016), 2-(3,4-dichloro-phenylamino)-4-(2-nitrobenzylamino)-5-trifluoromethyl-pyrimidine]"

row,IC50,Structure (SMILES)
1,< 100 nM,"NCC1CCN(c2nc(Nc3cccc(Br)c3)ncc2[N+](=O)[O-])CC1 [Example 1(042), 2-(3-bromo-phenylamino)-4-(4-aminomethyl-piperidin-1-yl)-5-nitro-pyrimidine]"
2,< 100 nM,"NCCNc1nc(Nc2ccc(S(=O)(=O)N3CCOCC3)cc2)ncc1C(F)(F)F [Example 1(689), N4-(2-amino-ethyl)-N2-[4-(morpholine-4-sulphonyl)-phenyl]-5-trifluoromethyl-pyrimidine-2,4-diamine]"
3,< 100 nM,"CN(C)S(=O)(=O)c1ccc(Nc2ncc(C(F)(F)F)c(NCCCN3CCCC3=O)n2)cc1 [Example 2(041), N,N-Dimethyl-4-{4-[3-(2-oxo-pyrrolidin-1-yl)-propylamino]-5-trifluoromethyl-pyrimidin-2-ylamino}-phenylsulphonamide]"
4,< 100 nM,"CC(=O)NCCNc1nc(Nc2ccc(C(N)=O)cc2)ncc1Br [Example 1(663), 4-[4-(2-acetylamino-ethylamino)-5-bromo-pyrimidin-2-ylamino]-benzamide]"
5,< 100 nM,"OCCCCCNc1nc(Nc2ccc(Cl)c(Cl)c2)ncc1C(F)(F)F [Example 1(045), 2-(3,4-dichloro-phenylamino)-4-(5-hydroxy-1-pentylamino)-5-trifluoromethyl-pyrimidine]"
6,< 100 nM,"O=C(O)CCc1ccc(Nc2ncc([N+](=O)[O-])c(N3CCc4[nH]cnc4C3)n2)cc1 [Example 1(112), 2-(4-(2-carboxy-1-ethyl)-phenylamino)-4-(1,4,6,7-tetrahydro-imidazo[4,5-c]pyridin-5-yl)-5-nitro-pyrimidine]"
7,< 100 nM,"O=C1CCCN1CCCNc1nc(Nc2ccc(CO)cc2)ncc1C(F)(F)F [Example 2(052), 1-{3-[2-(4-Hydroxymethyl-phenylamino)-5-trifluoromethyl-pyrimidin-4-ylamino]-propyl}-pyrrolidin-2-one]"
8,< 100 nM,"NC1CCCC(Nc2nc(Nc3ccc(Cl)cc3)ncc2[N+](=O)[O-])C1 (stereo not drawn) [Example 1(034), 2-(4-chloro-phenylamino)-4-(3-amino-cyclohexylamino)-5-nitro-pyrimidine]"
9,< 100 nM,"CC(=O)NCCNc1nc(Nc2ccc(C(=O)NC(C)c3ccccc3)cc2)ncc1C(F)(F)F (stereo not drawn) [Example 8(028), 4-[4-(2-acetylamino-ethylamino)-5-trifluoromethyl-pyrimidin-2-ylamino]-N-(1-phenyl-ethyl)-benzamide]"
10,< 100 nM,"CC(=O)NCCNc1nc(Nc2ccc(S(=O)(=O)N3CC(C)NC(C)C3)cc2)ncc1C(F)(F)F (stereo not drawn) [Example 2(061), N-(2-{2-[4-(3,5-Dimethyl-piperazin-1-sulphonyl)-phenylamino]-5-trifluoromethyl-pyrimidin-4-ylamino}-ethyl)-acetamide]"
11,< 100 nM,"FC(F)(F)c1cnc(Nc2ccc(Cl)c(Cl)c2)nc1NCCCN1CC2C=CC1C2 (stereo not drawn) [Example 1(009), 2-(3,4-dichlorophenylamino)-4-(3-(2-aza-bicyclo[2.2.1]hept-5-en-2-yl)-propylamino)-5-trifluoro-methyl-pyrimidine]"
12,< 100 nM,"FC(F)(F)c1cnc(Nc2ccc(Cl)c(Cl)c2)nc1NCCN1CCOCC1 [Example 1(104), 2-(3,4-dichloro-phenylamino)-4-(2-morpholino-1-ethylamino)-5-trifluoromethyl-pyrimidine]"
13,< 100 nM,"CC(C)C(=O)NCCCNc1nc(Nc2ccc3cnn(C)c3c2)ncc1C(F)(F)F [Example 7(002), N-{3-[2-(1-methyl-1H-indazol-6-ylamino)-5-trifluoromethyl-pyrimidin-4-ylamino]-propyl}-isobutyramide]"
14,< 100 nM,"NCCNc1nc(Nc2ccc(Cl)c(Cl)c2)ncc1C(F)(F)F [Example 1(080), 2-(3,4-dichloro-phenylamino)-4-(2-amino-1-ethylamino)-5-trifluoromethyl-pyrimidine]"
15,< 100 nM,"O[C@H]1CC[C@@H](Nc2nc(Nc3ccc(Cl)c(Cl)c3)ncc2C(F)(F)F)CC1 [Example 1(037), 2-(3,4-dichloro-phenylamino)-4-(cis-4-hydroxy-cyclohexylamino)-5-trifluoromethyl-pyrimidine]"
16,< 100 nM,"CNC(=O)c1ccc(Nc2ncc(C(F)(F)F)c(NCCNC(C)=O)n2)cc1Cl [Example 8(003), 4-[4-(2-acetylamino-ethylamino)-5-trifluoromethyl-pyrimidin-2-ylamino]-2-chloro-N-methyl-benzamide]"

row,Structure (SMILES),IC50
1,CC(C)COC(=O)NCCCNc1nc(Nc2ccc3cnn(C)c3c2)ncc1C(F)(F)F [Example 7(024)],< 100 nM
